System: Alzheimer's patients
Experiment: CIBIC+ in patients with mild to moderate AD, 24 week placebo-controlled study (Example 2)
Type: in vivo, human
Details: 24 weeks; for CIBIC+ LSMean (SE) / CIBIC+ Treatment Difference (95% confidence limits) Rosi − Placebo: ITT population, LOCF
Procedure: Analysis for the full intent to treat (ITT) population was performed on 511 subjects who were randomly allocated into one of four specific treatment regimes. Genotyping analysis was performed on 63% (323/511) of the ITT population.
Patient population included Caucasian males and females between 50-85 years of age who had been diagnosed with mild to moderate AD, were not receiving any medications which could adversely prejudice the study (e.g. PPAR-gamma agonists or conventional AD medicaments) or had any other potentially prejudicial ailments (e.g. diabetes or major psychiatric disorders).
Patients received either placebo or one of three dosage levels of extended release rosiglitazone provided once daily (2 mg, 4 mg and 8 mg tablets as described in Example 1). Patients were examined using the cognitive Alzheimer's Disease Assessment Scale (ADAS-cog; for further information see Rosen W G et al. Am. J. Psychiatry. 1984 141:1356-1364) and the Clinician's Interview-Based Impression of Change with caregiver information (CIBIC+; for further information see Knopman D S et al. Neurology 1994 44: 2315-2321); and secondary assessments were performed using: the Disability Assessment for Dementia (DAD, for further information see Gelinas L et al. Am J Occup Ther 1999 53: 471-81) and the Neuropsychiatric Inventory test (NPI, for further information see Cummings et al (1994) Neurology 44, 2308-2314) at the start of the study (baseline) and during the course of the study (after 8, 16 and 24 weeks of treatment).
APOE genotype was determined using the TaqMan PCR-based method of McLeod et al 2001 infra.
All statistics reflect last observed assessment carried forward (LOCF) measurements.
Higher CIBIC+ scores indicate a greater level of decline with scores below 4 denoting clinical improvement and scores above 4 denoting clinical decline.

[1] = Table 13, PGx ITT population, 0 APOE4 copies, 2 mg
[2] = Table 13, PGx ITT population, 0 APOE4 copies, 4 mg
[3] = Table 13, PGx ITT population, 0 APOE4 copies, 8 mg
[4] = Table 13, PGx ITT population, 1 APOE4 copy, 2 mg
[5] = Table 13, PGx ITT population, 1 APOE4 copy, 4 mg
[6] = Table 13, PGx ITT population, 1 APOE4 copy, 8 mg
[7] = Table 13, PGx ITT population, 2 APOE4 copies, 2 mg
[8] = Table 13, PGx ITT population, 2 APOE4 copies, 4 mg
[9] = Table 13, PGx ITT population, 2 APOE4 copies, 8 mg

CN(CCOc1ccc(CC2SC(=O)NC2=O)cc1)c1ccccn1 (stereo not drawn) [Rosi, 5-[4-[2-(N-methyl-N-(2-pyridyl)amino)ethoxy]benzyl]thiazolidine-2,4-dione]
CIBIC+ LSMean (SE) (2 mg): 3.8 (0.10)
CIBIC+ Treatment Difference (95% confidence limits) Rosi − Placebo (2 mg): −0.16 (−0.44, 0.11)
CIBIC+ LSMean (SE) (4 mg): 3.8 (0.10)
CIBIC+ Treatment Difference (95% confidence limits) Rosi − Placebo (4 mg): −0.16 (−0.43, 0.11)
CIBIC+ LSMean (SE) (8 mg): 3.8 (0.10)
CIBIC+ Treatment Difference (95% confidence limits) Rosi − Placebo (8 mg): −0.22 (−0.49, 0.05)
CIBIC+ Treatment Difference (90% confidence limits) Rosi − Placebo [1]: −0.49 (−0.89, −0.08)
model adjusted CIBIC+ LSMean (SE) [1]: 3.47 (0.18)
CIBIC+ Treatment Difference (90% confidence limits) Rosi − Placebo [2]: −0.19 (−0.60, 0.22)
model adjusted CIBIC+ LSMean (SE) [2]: 3.76 (0.18)
CIBIC+ Treatment Difference (90% confidence limits) Rosi − Placebo [3]: −0.19 (−0.61, 0.22)
model adjusted CIBIC+ LSMean (SE) [3]: 3.76 (0.18)
CIBIC+ Treatment Difference (90% confidence limits) Rosi − Placebo [4]: 0.59 (0.08, 1.11)
model adjusted CIBIC+ LSMean (SE) [4]: 4.47 (0.23)
CIBIC+ Treatment Difference (90% confidence limits) Rosi − Placebo [5]: 0.23 (−0.28, 0.74)
model adjusted CIBIC+ LSMean (SE) [5]: 4.11 (0.23)
CIBIC+ Treatment Difference (90% confidence limits) Rosi − Placebo [6]: −0.20 (−0.73, 0.34)
model adjusted CIBIC+ LSMean (SE) [6]: 3.68 (0.25)
CIBIC+ Treatment Difference (90% confidence limits) Rosi − Placebo [7]: −0.92 (−2.20, 0.37)
model adjusted CIBIC+ LSMean (SE) [7]: 3.42 (0.58)
CIBIC+ Treatment Difference (90% confidence limits) Rosi − Placebo [8]: −0.39 (−1.55, 0.77)
model adjusted CIBIC+ LSMean (SE) [8]: 3.95 (0.47)
CIBIC+ Treatment Difference (90% confidence limits) Rosi − Placebo [9]: −0.07 (−1.08, 0.95)
model adjusted CIBIC+ LSMean (SE) [9]: 4.27 (0.34)
model adjusted CIBIC+ LSMean (SE) (Table 13A updated analysis with additional subjects, 0 APOE4 copies, 2 mg): 3.51 (0.17)
model adjusted CIBIC+ LSMean (SE) (Table 13A updated analysis with additional subjects, 0 APOE4 copies, 4 mg): 3.75 (0.17)
model adjusted CIBIC+ LSMean (SE) (Table 13A updated analysis with additional subjects, 0 APOE4 copies, 8 mg): 3.75 (0.18)
model adjusted CIBIC+ LSMean (SE) (Table 13A updated analysis with additional subjects, 1 APOE4 copy, 2 mg): 4.32 (0.21)
model adjusted CIBIC+ LSMean (SE) (Table 13A updated analysis with additional subjects, 1 APOE4 copy, 4 mg): 3.97 (0.22)
model adjusted CIBIC+ LSMean (SE) (Table 13A updated analysis with additional subjects, 1 APOE4 copy, 8 mg): 3.70 (0.24)
model adjusted CIBIC+ LSMean (SE) (Table 13A updated analysis with additional subjects, 2 APOE4 copies, 2 mg): 3.46 (0.57)
model adjusted CIBIC+ LSMean (SE) (Table 13A updated analysis with additional subjects, 2 APOE4 copies, 4 mg): 3.93 (0.47)
model adjusted CIBIC+ LSMean (SE) (Table 13A updated analysis with additional subjects, 2 APOE4 copies, 8 mg): 4.29 (0.33)
CIBIC+ Treatment Difference (90% confidence limits) Rosi − Placebo (Table 13A updated analysis, 0 APOE4 copies, 2 mg): −0.46 (−0.85, −0.07)
CIBIC+ Treatment Difference (90% confidence limits) Rosi − Placebo (Table 13A updated analysis, 0 APOE4 copies, 4 mg): −0.22 (−0.62, 0.18)
CIBIC+ Treatment Difference (90% confidence limits) Rosi − Placebo (Table 13A updated analysis, 0 APOE4 copies, 8 mg): −0.22 (−0.62, 0.19)
CIBIC+ Treatment Difference (90% confidence limits) Rosi − Placebo (Table 13A updated analysis, 1 APOE4 copy, 2 mg): 0.39 (−0.09, 0.87)
CIBIC+ Treatment Difference (90% confidence limits) Rosi − Placebo (Table 13A updated analysis, 1 APOE4 copy, 4 mg): 0.04 (−0.44, 0.53)
CIBIC+ Treatment Difference (90% confidence limits) Rosi − Placebo (Table 13A updated analysis, 1 APOE4 copy, 8 mg): −0.22 (−0.74, 0.29)
